# Experimental data reported in patent publication US20230212122A1, “MITOCHONDRIAL TARGETING COMPOUNDS FOR THE TREATMENT OF ASSOCIATED DISEASES” (The Regents of the University of Michigan, priority 2020, published 2023).
# Tests used:
# MIA PaCa-2 cells = assay: MTT assay, cancer cell growth inhibition (MIA PaCa-2); type: cell-based; settings: Homo sapiens, MIA PaCa-2, 168 h, 7 days of treatment, read-out: MiaPaCa IC50
# Experimental: Measurement of cancer cell growth inhibition of the compounds of invention Cytotoxicity of the compounds was assessed by MTT assay. In brief, MIA PaCa-2 cells or BxPc3 cells were seeded in 96-well microtitre plates at density of 200 cells/well. After overnight attachment, cells were treated with compounds at indicated concentration. After 7 days of treatment, MTT solution (3 mg/ml, 20 μl) was added to each well and cells were incubated for 3 h at 37° C. After incubation, media from each well was removed and the dark blue formazan crystals formed by live cells were dissolved in DMSO ([…] per well). The absorbance intensity was measured at 570 nm on a microplate reader (Molecular Devices, Sunnyvale, Calif., USA). The half maximal inhibitory concentration (IC50) value were calculated using 4 or 6 dots curve plotted with Cumulative Gaussian equation or Log(inhibitor) vs. response equation in GraphPad Prism.
# UM16 cell line = assay: GSEA of proteomics data ([…], KEGG pathways); type: cell-based; settings: for ES / NES: 5 μM, 24 hours
# Source text: Several proteins participating in energy metabolism were dramatically changed.
# [1] = HALLMARK_ADIPOGENESIS, FDR q-val 0.644
# [2] = HALLMARK_ALLOGRAFT_REJECTION, FDR q-val 0.521
# [3] = HALLMARK_ANDROGEN_RESPONSE, FDR q-val 0.915
# [4] = HALLMARK_APOPTOSIS, FDR q-val 0.666
# [5] = HALLMARK_BILE_ACID_METABOLISM, FDR q-val 0.245
# [6] = HALLMARK_CHOLESTEROL_HOMEOSTASIS, FDR q-val 0.314
# [7] = HALLMARK_COAGULATION, FDR q-val 0.004
# [8] = HALLMARK_COMPLEMENT, FDR q-val 0.425
# [9] = HALLMARK_DNA_REPAIR, FDR q-val 0.454
# [10] = HALLMARK_E2F_TARGETS, FDR q-val 0.077
# [11] = HALLMARK_EPITHELIAL_MESENCHYMAL_TRANSITION, FDR q-val 0.456
# [12] = HALLMARK_G2M_CHECKPOINT, FDR q-val 0.107
# [13] = HALLMARK_GLYCOLYSIS, FDR q-val 0.489
# [14] = HALLMARK_HEME_METABOLISM, FDR q-val 0.552
# [15] = HALLMARK_HYPOXIA, FDR q-val 0.003
# [16] = HALLMARK_IL2_STAT5_SIGNALING, FDR q-val 0.552
# [17] = HALLMARK_MITOTIC_SPINDLE, FDR q-val 0.529
# [18] = HALLMARK_MYC_TARGETS_V1, FDR q-val 0.006
# [19] = HALLMARK_MYC_TARGETS_V2, FDR q-val 0.264
# [20] = HALLMARK_MYOGENESIS, FDR q-val 0.467
# [21] = HALLMARK_OXIDATIVE_PHOSPHORYLATION, FDR q-val 0.711
# [22] = HALLMARK_P53_PATHWAY, FDR q-val 0.146
# [23] = HALLMARK_PEROXISOME, FDR q-val 0.645
# [24] = HALLMARK_PROTEIN_SECRETION, FDR q-val 0.862
# [25] = HALLMARK_SPERMATOGENESIS, FDR q-val 0.851
# [26] = HALLMARK_TGF_BETA_SIGNALING, FDR q-val 0.771
# [27] = HALLMARK_TNFA_SIGNALING_VIA_NFKB, FDR q-val 0.457
# [28] = HALLMARK_UNFOLDED_PROTEIN_RESPONSE, FDR q-val 0.070
# [29] = HALLMARK_UV_RESPONSE_DN, FDR q-val 0.510
# [30] = HALLMARK_XENOBIOTIC_METABOLISM, FDR q-val 0.488
# [31] = KEGG_ADIPOCYTOKINE_SIGNALING_PATHWAY, FDR q-val 0.903
# [32] = KEGG_ARGININE_AND_PROLINE_METABOLISM, FDR q-val 0.668
# [33] = KEGG_B_CELL_RECEPTOR_SIGNALING_PATHWAY, FDR q-val 0.813
# [34] = KEGG_CARDIAC_MUSCLE_CONTRACTION, FDR q-val 0.900
# [35] = KEGG_CYTOSOLIC_DNA_SENSING_PATHWAY, FDR q-val 0.907
# [36] = KEGG_FC_EPSILON_RI_SIGNALING_PATHWAY, FDR q-val 0.825
# [37] = KEGG_GAP_JUNCTION, FDR q-val 0.898
# [38] = KEGG_GLYCEROLIPID_METABOLISM, FDR q-val 0.663
# [39] = KEGG_GLYCOLYSIS_GLUCONEOGENESIS, FDR q-val 0.889
# [40] = KEGG_INOSITOL_PHOSPHATE_METABOLISM, FDR q-val 0.852
# [41] = KEGG_INSULIN_SIGNALING_PATHWAY, FDR q-val 0.872
# [42] = KEGG_LYSINE_DEGRADATION, FDR q-val 0.914
# [43] = KEGG_MELANOGENESIS, FDR q-val 0.638
# [44] = KEGG_NON_SMALL_CELL_LUNG_CANCER, FDR q-val 0.894
# [45] = KEGG_NUCLEOTIDE_EXCISION_REPAIR, FDR q-val 0.829
# [46] = KEGG_PATHWAYS_IN_CANCER, FDR q-val 0.858
# [47] = KEGG_PEROXISOME, FDR q-val 0.839
# [48] = KEGG_PROP_ANOATE_METABOLISM, FDR q-val 0.889
# [49] = KEGG_PURINE_METABOLISM, FDR q-val 0.909
# [50] = KEGG_VIRAL_MYOCARDITIS, FDR q-val 0.832
compound,measurement,setting,value
"CCOC(=O)[C@@H]1CCCN(S(=O)(=O)c2ccc(S(=O)(=O)N(CC)CC)cc2)C1 [DX2-201, ethyl (R)-1-((4-(N,N-diethylsulfamoyl)phenyl)sulfonyl)piperidine-3-carboxylate]",IC50,MIA PaCa-2 cells,370 ± 60 nM
same,TCA cycle (proteomic results),UM16 cell line,suppressed
same,"hypoxia pathways, bile acid metabolism, cholesterol homoeostasis and glycolysis (proteomic results)",UM16 cell line,upregulated
same,ES,UM16 cell line; [1],0.317
same,NES,UM16 cell line; [1],1.025
same,ES,UM16 cell line; [2],−0.287
same,NES,UM16 cell line; [2],−1.082
same,ES,UM16 cell line; [3],0.259
same,NES,UM16 cell line; [3],0.760
same,ES,UM16 cell line; [4],0.335
same,NES,UM16 cell line; [4],1.042
same,ES,UM16 cell line; [5],0.523
same,NES,UM16 cell line; [5],1.465
same,ES,UM16 cell line; [6],0.493
same,NES,UM16 cell line; [6],1.407
same,ES,UM16 cell line; [7],0.636
same,NES,UM16 cell line; [7],1.813
same,ES,UM16 cell line; [8],0.401
same,NES,UM16 cell line; [8],1.235
same,ES,UM16 cell line; [9],0.381
same,NES,UM16 cell line; [9],1.239
same,ES,UM16 cell line; [10],−0.349
same,NES,UM16 cell line; [10],−1.559
same,ES,UM16 cell line; [11],0.449
same,NES,UM16 cell line; [11],1.312
same,NES,"UM16 cell line; HALLMARK_ESTROGEN_RESPONSE_EARLY, FDR q-val 0.813",0.929
same,ES,UM16 cell line; [12],−0.313
same,NES,UM16 cell line; [12],−1.421
same,ES,UM16 cell line; [13],0.399
same,NES,UM16 cell line; [13],1.281
same,ES,UM16 cell line; [14],0.376
same,NES,UM16 cell line; [14],1.150
same,ES,UM16 cell line; [15],0.595
same,NES,UM16 cell line; [15],1.851
same,ES,UM16 cell line; [16],0.384
same,NES,UM16 cell line; [16],1.176
same,ES,UM16 cell line; [17],0.348
same,NES,UM16 cell line; [17],1.170
same,ES,UM16 cell line; [18],−0.424
same,NES,UM16 cell line; [18],−1.975
same,ES,UM16 cell line; [19],−0.329
same,NES,UM16 cell line; [19],−1.215
same,ES,UM16 cell line; [20],−0.285
same,NES,UM16 cell line; [20],−1.077
same,ES,UM16 cell line; [21],−0.214
same,NES,UM16 cell line; [21],−0.938
same,ES,UM16 cell line; [22],−0.323
same,NES,UM16 cell line; [22],−1.338
same,ES,UM16 cell line; [23],0.347
same,NES,UM16 cell line; [23],1.037
same,ES,UM16 cell line; [24],−0.207
same,NES,UM16 cell line; [24],−0.842
same,ES,UM16 cell line; [25],−0.229
same,NES,UM16 cell line; [25],−0.803
same,ES,UM16 cell line; [26],−0.296
same,NES,UM16 cell line; [26],−0.944
same,ES,UM16 cell line; [27],0.448
same,NES,UM16 cell line; [27],1.335
same,ES,UM16 cell line; [28],−0.372
same,NES,UM16 cell line; [28],−1.517
same,ES,UM16 cell line; [29],0.433
same,NES,UM16 cell line; [29],1.256
same,ES,UM16 cell line; [30],0.393
same,NES,UM16 cell line; [30],1.244
same,ES,UM16 cell line; [31],0.390
same,NES,UM16 cell line; [31],1.046
same,NES,"UM16 cell line; KEGG_ANTIGEN_PROCESSING_AND_PRESENTATION, FDR q-val 0.792",−0.917
same,ES,UM16 cell line; [32],0.543
same,NES,UM16 cell line; [32],1.389
same,NES,"UM16 cell line; KEGG_BASAL_TRANSCRIPTION_FACTORS, FDR q-val 0.687",−1.121
same,ES,UM16 cell line; [33],0.504
same,NES,UM16 cell line; [33],1.432
same,ES,UM16 cell line; [34],0.469
same,NES,UM16 cell line; [34],1.177
same,NES,"UM16 cell line; KEGG_CELL_CYCLE, FDR q-val 0.828",−0.995
same,NES,"UM16 cell line; KEGG_CITRATE_CYCLE_TCA_CYCLE, FDR q-val 0.422",−1.416
same,ES,UM16 cell line; [35],0.469
same,NES,UM16 cell line; [35],1.166
same,NES,"UM16 cell line; KEGG_DNA_REPLICATION, FDR q-val 0.844",−0.919
same,NES,"UM16 cell line; KEGG_ERBB_SIGNALING_PATHWAY, FDR q-val 0.821",1.410
same,ES,UM16 cell line; [36],0.593
same,NES,UM16 cell line; [36],1.623
same,ES,UM16 cell line; [37],0.386
same,NES,UM16 cell line; [37],1.041
same,ES,UM16 cell line; [38],0.572
same,NES,UM16 cell line; [38],1.376
same,ES,UM16 cell line; [39],0.394
same,NES,UM16 cell line; [39],1.086
same,ES,UM16 cell line; [40],0.520
same,NES,UM16 cell line; [40],1.277
same,ES,UM16 cell line; [41],0.352
same,NES,UM16 cell line; [41],1.077
same,ES,UM16 cell line; [42],0.381
same,NES,UM16 cell line; [42],1.007
same,ES,UM16 cell line; [43],0.534
same,NES,UM16 cell line; [43],1.369
same,ES,UM16 cell line; [44],0.415
same,NES,UM16 cell line; [44],1.092
same,ES,UM16 cell line; [45],0.469
same,NES,UM16 cell line; [45],1.271
same,NES,"UM16 cell line; KEGG_N_GLYCAN_BIOSYNTHESIS, FDR q-val 0.658",−1.160
same,NES,"UM16 cell line; KEGG_PARKINSONS_DISEASE, FDR q-val 0.702",−1.180
same,ES,UM16 cell line; [46],0.324
same,NES,UM16 cell line; [46],1.074
same,ES,UM16 cell line; [47],0.459
same,NES,UM16 cell line; [47],1.302
same,ES,UM16 cell line; [48],0.424
same,NES,UM16 cell line; [48],1.079
same,NES,"UM16 cell line; KEGG_PROTEASOME, FDR q-val 0.605",−1.425
same,NES,"UM16 cell line; KEGG_PROTEIN_EXPORT, FDR q-val 0.625",−1.116
same,ES,UM16 cell line; [49],0.331
same,NES,UM16 cell line; [49],1.023
same,NES,"UM16 cell line; KEGG_RIBOSOME, FDR q-val 0.003",−2.132
same,NES,"UM16 cell line; KEGG_RNA_DEGRADATION, FDR q-val 0.672",−1.228
same,NES,"UM16 cell line; KEGG_SPLICEOSOME, FDR q-val 0.541",−1.319
same,NES,"UM16 cell line; KEGG_VIBRIO_CHOLERAE_INFECTION, FDR q-val 0.754",−1.044
same,ES,UM16 cell line; [50],0.497
same,NES,UM16 cell line; [50],1.292
